Reference: patent publication US6043231A, “Inhibition of excessive phospholipase A2 activity and/or production by non-antimicrobial tetracyclines” (The Research Foundation of State Univ. of New York, priority 1993, dated 2000)

Assays:
Type in all cases: biochemical
porcine pancreatic PLA2 = molecular target: T1, porcine pancreatic PLA2 (Sus scrofa, UniProt P00592); test: PLA2 inhibition, E. coli assay, porcine pancreatic PLA2
T1 construct: labelled E. coli membrane substrate
Procedure: (§1) Six different chemically-modified tetracyclines, including CMT-1 (4-dedimethylaminotetracycline), CMT-2 (tetracyclinonitrile), CMT-3 (6-demethyl-6-deoxy-4-de-dimethylaminotetracycline), CMT-4 (4-de-dimethylamino-7-chloro-tetracycline), CMT-5 (pyrazole analog) and CMT-6 (4-hydroxy-4-dedimethylaminotetracycline), were examined for their ability to inhibit PLA2 activity in vitro. The sources of PLA2 that were tested included recombinant human PLA2, human pancreatic and porcine pancreatic PLA2 and Naja naja PLA2. […] Various concentrations of CMTs, ranging from 5-100 μg/ml, were preincubated with the different PLA2 enzymes for 30 minutes and the mixture was tested for PLA2 activity using a known E. coli assay method (see Arthritis and Rheumatism, 34 Supp. 9: p. S160 (abst C167)).
(§2) A chemically-modified tetracycline, 4-dedimethyl-amino-7-dimethylaminotetracycline (CMT-10), was examined for its ability to inhibit PLA2 activity in vitro. The sources of PLA2 that were tested included were recombinant human PLA2 (snpPLA2), human pancreatic and porcine pancreatic PLA2 and Naja naja PLA2. […] Various concentrations of CMT-10, ranging from 5-100 μg/ml, were preincubated with the different PLA2 enzymes for 30 minutes and the mixture was tested for PLA2 activity using a known E. coli assay method (see Arthritis and Rheumatism, 34 Supp. 9: p. S160 (abst C167)).
(§3) In particular, [^14 C]Oleic acid-labelled Escherichia coli (strain K12 C600) were used as the substrate. This substrate has been characterized with respect to phospholipid composition and distribution of radiolabel. Reaction mixtures contained 10 mg bovine serum albumin, 2 mM CaCl2, 2.8×10^8 radiolabelled E. coli and 0.1 M Tris-HCl buffer, pH 7.5 in a total volume of 1.5 ml. Reaction mixtures were incubated at 37° C. for 30 min. The reaction was terminated by filtration through a 0.45 μm Millipore filter, thereby retaining unhydrolysed E. coli membranes, and allowing the [^14 C]oleic acid bound to the BSA carrier, released as a result of PLA2 hydrolysis, to pass through the filter. Assays were performed in duplicate and values shown represent the mean of two determinations with a SD<5% of the mean. Assays were performed in substrate excess and enzyme activities were corrected for non-enzymatichydrolysis. One unit of PLA2 activity is defined as the hydrolysis of 56 pmol of phospholipid substrate (representing 1% of total E. coli phospholipid) in 30 min at 37° C.

[1] = molecular target: T2, recombinant human PLA2 (snpPLA2) (Homo sapiens, UniProt P14555); test: PLA2 inhibition, radiolabelled E. coli assay, recombinant human PLA2
T2 sequence (P14555 21-144): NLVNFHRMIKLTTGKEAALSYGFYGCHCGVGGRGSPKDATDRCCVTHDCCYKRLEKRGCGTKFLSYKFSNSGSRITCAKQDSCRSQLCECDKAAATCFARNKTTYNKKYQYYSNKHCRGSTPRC
Procedure: as §1, §2, §3

human pancreatic PLA2 = molecular target: T3, human pancreatic PLA2 (Homo sapiens, UniProt P04054); test: PLA2 inhibition, E. coli assay, human pancreatic PLA2
T3 construct: labelled E. coli membrane substrate
Procedure: as §1, §2, §3

[2] = concentrations of 25 μg/ml or greater
[3] = recombinant human PLA2, 30 min preincubation

T1 sequence (P00592 23-146): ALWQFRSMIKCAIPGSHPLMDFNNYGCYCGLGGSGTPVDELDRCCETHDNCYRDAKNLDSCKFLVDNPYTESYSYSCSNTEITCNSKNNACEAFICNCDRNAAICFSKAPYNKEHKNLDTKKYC
T3 sequence (P04054 23-148): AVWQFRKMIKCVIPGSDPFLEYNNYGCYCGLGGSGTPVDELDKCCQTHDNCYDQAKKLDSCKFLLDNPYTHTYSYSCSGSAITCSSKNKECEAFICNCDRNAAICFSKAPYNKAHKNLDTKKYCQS

| SMILES | inhibition of porcine pancreatic PLA2 (porcine pancreatic PLA2) | PLA2-inhibitory activity [1, 2] | IC50 (concentration of the drug required to inhibit 50% of PLA2) [1, 3] | inhibition of human pancreatic PLA2 (human pancreatic PLA2) | PLA2-inhibitory activity ([1]; highest concentrations tested (range 5-100 μg/ml)) | IC50 ([1]; recombinant human PLA2, 30 min preincubation, read-out: IC50 (concentration of the drug required to inhibit 50% of PLA2) (converted)) | % inhibition (human pancreatic PLA2; 30 μg/ml, human pancreatic PLA2) |
| --- | --- | --- | --- | --- | --- | --- | --- |
| CC1(O)c2cccc(O)c2C(=O)C2=C(O)C3(O)C(=O)C(C(N)=O)=C(O)CC3CC21 (stereo not drawn) [CMT-1, 4-dedimethylaminotetracycline] | found to inhibit | exhibited significant PLA2 -inhibitory activity | 37 µg/mL | found to inhibit |  |  |  |
| CN(C)C1C(=O)C(C#N)=C(O)C2(O)C(=O)C3=C(O)c4c(O)cccc4C(C)(O)C3CC12 (stereo not drawn) [CMT-2, tetracyclinonitrile] |  |  |  |  | lacked any PLA2 -inhibitory activity |  |  |
| NC(=O)C1=C(O)C2(O)C(=O)C3=C(O)c4c(O)cccc4CC3CC2CC1=O (stereo not drawn) [CMT-3, 6-demethyl-6-deoxy-4-de-dimethylaminotetracycline] | found to inhibit | exhibited significant PLA2 -inhibitory activity |  | found to inhibit |  | 75.4 µM |  |
| CC1(O)c2c(Cl)ccc(O)c2C(=O)C2=C(O)C3(O)C(=O)C(C(N)=O)=C(O)CC3CC21 (stereo not drawn) [CMT-4, 4-de-dimethylamino-7-chloro-tetracycline] | found to inhibit | exhibited significant PLA2 -inhibitory activity | 42 µg/mL | found to inhibit |  |  |  |
| CC1(O)c2cccc(O)c2C(=O)C2=C(O)C3(O)C(=O)C(C(N)=O)=C(O)C(O)C3CC21 (stereo not drawn) [CMT-6, 4-hydroxy-4-dedimethylaminotetracycline] | found to inhibit | exhibited significant PLA2 -inhibitory activity | 17 µg/mL | found to inhibit |  |  |  |
| CN(C)c1ccc(O)c2c1C(C)(O)C1CC3CC(O)=C(C(N)=O)C(=O)C3(O)C(O)=C1C2=O (stereo not drawn) [CMT-10, 4-dedimethylamino-7-dimethylaminotetracycline] |  | exhibited significant PLA2 -inhibitory activity | 30 µg/mL | found to inhibit |  |  | 66% |
